≈ marks a conversion by molar mass, not a printed value. Where two headings read alike, the source gives them in different places. Starred links: 1 amine or outer side, 2 acyl side, 3 side chain; linkers in the order of their positions; H or OH if unused. Positions of bridges follow the written chain, without caps; N, C: chain ends. Non-standard residues stand in square brackets, D forms with d. Residues, ends and D or L forms follow the SMILES beside them. *: point of attachment. X5 = CN(C(=O)CCC(=O)[*:3])[C@@H](CS[*:2])C(=O)[*:1]; X3 = CN(CCCCC(=O)N[C@@H](CS[*:2])C(=O)[*:1])[*:3]; Trp(7-Me) = Cc1cccc2c(C[C@H](N)C(=O)O)c[nH]c12; X1 = O=C(CCCCN[*:3])N[C@@H](CS[*:2])C(=O)[*:1]; αMeLys(Me2) = CN(C)CCCC[C@](C)(N)C(=O)O; 2Nal = N[C@@H](Cc1ccc2ccccc2c1)C(=O)O; d2Nal = N[C@H](Cc1ccc2ccccc2c1)C(=O)O; 3Pal = N[C@@H](Cc1cccnc1)C(=O)O; Lys(Me) = CNCCCC[C@H](N)C(=O)O; αMeL = CC(C)C[C@](C)(N)C(=O)O; Suc = O=C(CCC(=O)[*:2])[*:1]; Thp = NC1(C(=O)O)CCOCC1; Me2NCH2CH2 = CN(C)CC*; Aib = CC(C)(N)C(=O)O; Ava = NCCCCC(=O)O; Sar = CNCC(=O)O
How the values were obtained:
[1] = biological target: T1, human interleukin-23 receptor (recombinant human IL-23R-Fc chimera) (Homo sapiens, UniProt Q5VWK5); assay: Human ELISA IL23/IL23R (assay for specific human IL23R antagonists); assay type: binding; settings: Table 10; read-out: Human ELISA IL23/IL23R IC50
T1 construct: Fc (IgG Fc fusion)
Outline: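 Competition format: peptide dilutions compete for IL23R-Fc chimera (0.1 μg/ml final, 60 min, room temperature) binding to immobilized human IL23 coated at […] overnight at 4 °C. Read-out is fluorogenic HRP signal from goat anti-hu-IgG1 detecting captured receptor.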

[2] = system: IL-23 induced STAT3 signaling in HEK-Blue™ IL-23 cells; assay: IL-23 induced STAT3 signaling in HEK-Blue IL-23 cells (SEAP reporter); assay type: cell-based; settings: human IL23 0.25 ng/ml, read-out: pSTAT3
Outline: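 Secreted SEAP, read at OD 620-655 nm after 45 min QUANTI-Blue development, reports STAT3 activation. Beforehand, cells were exposed to peptide dilutions for 60 min at 37 °C and then to 0.25 ng/ml final human IL-23 overnight, at 10,000 cells/well.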

[3] = Solubility testing of peptides at different pH; assay type: physicochemical; settings: target concentration 1 mg/ml, 2 hours agitation
Outline: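 Four buffers were used: 50 mM HCl pH 1.2 and 50 mM phosphate at pH 6.5, 7.4 and 9.0, each receiving dried-down compound at a 1 mg/mL target. After 2 h gentle shaking and 0.45 μm filtration, UV peak areas were compared with a DMSO standard curve of known concentration, allowing for extinction coefficients.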

Pepsin = system: T2, Pepsin; assay: Protease stability in simulated gastric fluid (Pepsin-SGF, FaSSGF); assay type: in vitro ADME; settings: simulated gastric fluid with pepsin (Pepsin-SGF), 60 min, 1 μM peptide, 37° C., read-out: FaSSGF 60 (min), remaining percent of peptide
T2 construct: purchased Merck Millipore
Outline: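 LCMS/MS peak areas, normalised to the time-0 sample as 100%, give percent remaining. Conditions: 37° C incubation of 1 μM final peptide in simulated gastric fluid with pepsin; ethanol/0.1% HCOOH quench at 0, 60, 120, 240 min.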

Pancreatin = assay: Protease stability in simulated intestinal fluid (Pancreatin-SIF, FaSSIF); assay type: in vitro ADME; settings: 1 μM peptide, 37° C.; for remaining at 1 h, 1 µM: 60 min, read-out: FaSSIF 60 (min), remaining percent of peptide; for remaining at 2 h, 1 µM: 120 min, read-out: FaSSIF 120 (min), remaining percent of peptide; for remaining at 4 h, 1 µM: 240 min, read-out: FaSSIF 240 (min), remaining percent of peptide
Outline: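 LC-MS/MS peak areas at 0, 60, 120 and 240 min, normalised to time 0 as 100%, give percent remaining. Reactions used 1 μM final peptide at 37° C in pancreatin-SIF (1 mg pancreatin in 10 mL SIF concentrate) and were stopped with ethanol containing 0.1% HCOOH.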

[4] = 50 mM HCl buffer, 50 mM HCl pH 1.2, read-out: Solubility Buffer pH 1.2
[5] = 50 mM phosphate buffer pH 6.5, read-out: Solubility Buffer pH 6.5
[6] = 50 mM phosphate buffer pH 7.4, read-out: Solubility Buffer pH 7.4
[7] = 50 mM phosphate buffer pH 9.0, read-out: Solubility Buffer pH 9.0

Compound	IC50 [1]	IC50 [2]	solubility at 2 h [3, 4]	solubility at 2 h [3, 5]	solubility at 2 h [3, 6]	remaining at 1 h, 1 µM (Pepsin)	remaining at 1 h, 1 µM (Pancreatin)	remaining at 2 h, 1 µM (Pancreatin)	remaining at 4 h, 1 µM (Pancreatin)	solubility at 2 h [3, 7]
C[C@@H](O)[C@@H]1NC(=O)[C@H](CC(N)=O)NC(=O)[C@@H]2CSSC[C@H](NC(=O)[C@H](CCC(N)=O)NC(=O)[C@H](Cc3c[nH]c4ccccc34)NC1=O)C(=O)N[C@@H](Cc1ccc(OCCN)cc1)C(=O)N[C@H](Cc1ccc3ccccc3c1)C(=O)NC(C)(C)C(=O)N[C@H](C(=O)N[C@@H](CC(N)=O)C(=O)N[C@@H](CC(N)=O)C(N)=O)CCC(=O)NCCCCC(=O)N2 [compound 5]	0.61 nM	9.66 nM	≥ 1110 µg/mL	≥ 1230 µg/mL	≥ 1230 µg/mL	82%	94%	86%	64%	
CC(=O)NCCCC[C@@H]1NC(=O)[C@H](Cc2c[nH]c3ccccc23)NC(=O)[C@@H](NC(C)=O)CCCCNC(=O)[C@@H]2CSSC[C@H](NC1=O)C(=O)N[C@@H](Cc1ccc(OCCN(C)C)cc1)C(=O)N[C@H](Cc1ccc3ccccc3c1)C(=O)N[C@@](C)(CCCCN(C)C)C(=O)N[C@H](C(=O)N[C@@H](CC(N)=O)C(=O)N[C@@H](Cc1cccnc1)C(=O)N(C)CC(N)=O)CCC(=O)NCCCCC(=O)N2 [compound 59] (Ac-KWK(Ac)CY(Me2NCH2CH2)[d2Nal][αMeLys(Me2)]EN[3Pal][Sar]-NH2; linker 1-4-8 via X1)	0.24 nM	0.07 nM	≥ 1090 µg/mL	≥ 1030 µg/mL	≥ 1090 µg/mL	77%	98%	97%	97%	
CC(=O)NCCCC[C@@H]1NC(=O)[C@H](Cc2c[nH]c3c(C)cccc23)NC(=O)[C@H]([C@@H](C)O)NC(=O)[C@H](CC(N)=O)NC(=O)[C@@H]2CSSC[C@H](NC1=O)C(=O)N[C@@H](Cc1ccc(OCCN(C)C)cc1)C(=O)N[C@@H](Cc1ccc3ccccc3c1)C(=O)NC1(CCOCC1)C(=O)N[C@H](C(=O)N[C@@H](CO)C(=O)N[C@@H](Cc1cccnc1)C(=O)N(C)CC(N)=O)CCC(=O)NCCCCC(=O)N2 [compound 56] ([Ava]CNT[Trp(7-Me)]K(Ac)CY(Me2NCH2CH2)[2Nal][Thp]ES[3Pal][Sar]-NH2; disulfide 2-7; lactam N-11)	0.57 nM	0.16 nM	≥ 1090 µg/mL	≥ 920 µg/mL	≥ 1030 µg/mL	86%	90%	76%	77%	
CC(=O)NCCCC[C@@H]1NC(=O)[C@H](Cc2c[nH]c3c(C)cccc23)NC(=O)[C@@H](NC(C)=O)CCCCNC(=O)[C@@H]2CSSC[C@H](NC1=O)C(=O)N[C@@H](Cc1ccc(OCCN(C)C)cc1)C(=O)N[C@@H](Cc1ccc3ccccc3c1)C(=O)NC1(CCOCC1)C(=O)N[C@H](C(=O)N[C@@H](CC(N)=O)C(=O)N[C@@H](Cc1cccnc1)C(=O)N(C)CC(N)=O)CCCCN(C)C(=O)CCC(=O)N2C [compound 74] (Ac-K[Trp(7-Me)]K(Ac)CY(Me2NCH2CH2)[2Nal][Thp][Lys(Me)]N[3Pal][Sar]-NH2; linker 1-4-8 via X5)	0.54 nM	0.12 nM	≥ 1390 µg/mL	≥ 980 µg/mL	330 µg/mL (≈ 174 µM)	92%	87%	84%	78%	180 µg/mL (≈ 95.1 µM)
C[C@@H](O)[C@@H]1NC(=O)[C@H](CC(N)=O)NC(=O)[C@@H]2CSSC[C@H](NC(=O)[C@H](CCC(N)=O)NC(=O)[C@H](Cc3c[nH]c4ccccc34)NC1=O)C(=O)N[C@@H](Cc1ccc(OCCN(C)C)cc1)C(=O)N[C@H](Cc1ccc3ccccc3c1)C(=O)NC(C)(C)C(=O)N[C@H](C(=O)N[C@@H](CC(N)=O)C(=O)N[C@@H](CC(N)=O)C(N)=O)CCC(=O)NCCCCC(=O)N2 [compound 8]	0.24 nM	5.54 nM	≥ 990 µg/mL	≥ 1000 µg/mL	≥ 1020 µg/mL	92%	97%	91%	82%	≥ 1040 µg/mL
CC(=O)NCCCC[C@@H]1NC(=O)[C@H](Cc2c[nH]c3c(C)cccc23)NC(=O)[C@@H](NC(C)=O)CCCCNC(=O)[C@@H]2CSSC[C@H](NC1=O)C(=O)N[C@@H](Cc1ccc(OCCN(C)C)cc1)C(=O)N[C@@H](Cc1ccc3ccccc3c1)C(=O)NC(C)(C)C(=O)N[C@H](C(=O)N[C@@H](CC(N)=O)C(=O)N[C@@H](Cc1c[nH]cn1)C(N)=O)CCC(=O)N(C)CCCCC(=O)N2 [compound 60] (Ac-K[Trp(7-Me)]K(Ac)CY(Me2NCH2CH2)[2Nal][Aib]ENH-NH2; linker 1-4-8 via X3)	0.21 nM	0.16 nM	≥ 1020 µg/mL	≥ 1000 µg/mL	≥ 930 µg/mL	68%	99%	91%	91%	
Cc1cccc2c(C[C@@H]3NC(=O)[C@H]([C@@H](C)O)NC(=O)[C@H](CC(N)=O)NC(=O)[C@@H]4CSSC[C@H](NC(=O)[C@H](CCC(N)=O)NC3=O)C(=O)N[C@@H](Cc3ccc(OCCN(C)C)cc3)C(=O)N[C@@H](Cc3ccc5ccccc5c3)C(=O)N[C@@](C)(CC(C)C)C(=O)N[C@H](C(=O)N[C@@H](CC(N)=O)C(=O)N[C@@H](Cc3cccnc3)C(=O)N(C)CC(N)=O)CCC(=O)NCCCCC(=O)N4)c[nH]c12 [compound 63] ([Ava]CNT[Trp(7-Me)]QCY(Me2NCH2CH2)[2Nal][αMeL]EN[3Pal][Sar]-NH2; disulfide 2-7; lactam N-11)	0.41 nM	0.2 nM	≥ 910 µg/mL	≥ 980 µg/mL	≥ 910 µg/mL	95%	90%	86%	81%	
CC(=O)NCCCC[C@@H]1NC(=O)[C@H](Cc2c[nH]c3c(C)cccc23)NC(=O)[C@H]([C@@H](C)O)NC(=O)[C@H](CC(N)=O)NC(=O)[C@@H]2CSSC[C@H](NC1=O)C(=O)N[C@@H](Cc1ccc(OCCN(C)C)cc1)C(=O)N[C@@H](Cc1ccc3ccccc3c1)C(=O)NC1(CCOCC1)C(=O)N[C@H](C(=O)N[C@@H](CC(N)=O)C(=O)N[C@@H](Cc1c[nH]cn1)C(N)=O)CCC(=O)NCCCCC(=O)N2 [compound 21] ([Ava]CNT[Trp(7-Me)]K(Ac)CY(Me2NCH2CH2)[2Nal][Thp]ENH-NH2; disulfide 2-7; lactam N-11)	0.31 nM	2.67 nM	≥ 1080 µg/mL	≥ 1010 µg/mL	≥ 970 µg/mL	91%	89%	77%	75%	230 µg/mL (≈ 126 µM)
C[C@@H](O)[C@@H]1NC(=O)[C@H](CC(N)=O)NC(=O)[C@@H]2CSSC[C@H](NC(=O)[C@H](CCC(N)=O)NC(=O)[C@H](Cc3c[nH]c4ccccc34)NC1=O)C(=O)N[C@@H](Cc1ccc(OCCN(C)C)cc1)C(=O)N[C@@H](Cc1ccc3ccccc3c1)C(=O)NC(C)(C)C(=O)N[C@H](C(=O)N[C@@H](CC(N)=O)C(=O)N[C@@H](CC(N)=O)C(N)=O)CCCCN(C)C(=O)CCC(=O)N2 [compound 25]	0.59 nM	39.2 nM				74%	71%	52%	45%	
Cc1cccc2c(C[C@@H]3NC(=O)[C@H]([C@@H](C)O)NC(=O)[C@H](CC(N)=O)NC(=O)[C@@H]4CSSC[C@H](NC(=O)[C@H](CC(C)C)NC3=O)C(=O)N[C@@H](Cc3ccc(OCCN(C)C)cc3)C(=O)N[C@@H](Cc3ccc5ccccc5c3)C(=O)N[C@@](C)(CCCCN(C)C)C(=O)N[C@H](C(=O)N[C@@H](C)C(=O)N[C@@H](Cc3cccnc3)C(=O)N(C)CC(N)=O)CCCCNC(=O)CCC(=O)N4)c[nH]c12 [compound 155] (CNT[Trp(7-Me)]LCY(Me2NCH2CH2)[2Nal][αMeLys(Me2)]KA[3Pal][Sar]-NH2; disulfide 1-6; linker N-10 via Suc)	0.7 nM	0.1 nM				98%	98%	98%	98%	
